In PMC4899718, “Establishing Virulence Associated Polyphosphate Kinase 2 as a drug target for Mycobacterium tuberculosis” (Scientific Reports, 2016):

Legend:
PPK-2 (MBP-PPK-2) [1] = biological target: T1, PPK-2 (MBP-PPK-2) (Mycobacterium tuberculosis, UniProt O05877); experiment: luciferase-based ATP synthesis endpoint assay; assay type: biochemical
T1 construct: gene ppk2

PPK-2 (MBP-PPK-2) [2] = biological target: T1, PPK-2 (MBP-PPK-2)

T1 sequence (O05877 whole entry, looked up): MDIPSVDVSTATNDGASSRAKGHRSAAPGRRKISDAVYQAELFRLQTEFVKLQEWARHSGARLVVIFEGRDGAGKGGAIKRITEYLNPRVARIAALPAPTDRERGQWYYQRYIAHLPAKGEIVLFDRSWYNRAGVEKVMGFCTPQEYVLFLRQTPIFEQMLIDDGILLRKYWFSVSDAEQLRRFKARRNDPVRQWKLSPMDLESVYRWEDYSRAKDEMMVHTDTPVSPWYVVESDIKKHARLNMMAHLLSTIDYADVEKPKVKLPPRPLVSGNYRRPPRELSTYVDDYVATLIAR

| SMILES | inhibition at 100 µM (PPK-2 (MBP-PPK-2) [1]) [%] | luciferase-based ATP quantification (PPK-2 (MBP-PPK-2) [2]) | further results |
| --- | --- | --- | --- |
| CCOc1ccc(Nc2c3ccccc3nc3ccccc23)cc1 [NSC-30205] | > 80 |  |  |
| O=c1cc2oc3cc(O)c(O)cc3c(-c3ccccc3O)c-2cc1O [NSC-9037] | > 80 |  |  |
| Nc1ncnc2c1ncn2[C@@H]1O[C@H](COP(=O)(O)OP(=O)(O)O)[C@@H](O)[C@H]1O [ADP] |  | ATP synthetic activity of PPK-2 increased in the presence of both ADP and enzyme |  |
| O=c1c(O)cccc2cc(O)c(O)c(O)c12 [NSC-35676] |  |  | % inhibition at 100 μM (PPK-2 (MBP-PPK-2) [1]; PolyP17 10 μM as phosphate donor, 10 mM MgCl2, pH 7.4, 37 °C, 10 min pre-incubation, luciferase counter-screened): > 80% |
| O=P(O)(O)OP(=O)(O)OP(=O)(O)O [PolyP3] |  | MBP-PPK-2 could also utilize short chain polyphosphates, PolyP3 as the phosphate donor |  |
| CC1Oc2cc3c(-c4c(O)cc(O)c5c(O)c6c(cc45)OC(C)C(C)C6=O)c(O)cc(O)c3c(O)c2C(=O)C1C (stereo not drawn) [NSC-345647] | > 80 |  |  |
